pIC50: −log10 of the molar value.
molecular target: T1, Dimer of Gag-Pol polyprotein [489-587] (Human immunodeficiency virus 1, UniProt P12497); assay: Protease Inhibition Assay; conditions: pH 5.5; 30 °C
T1 construct: 489-587
Description: Sensitivity of HIV-1 protease activity to protease inhibitors was determined by a peptide substrate cleavage assay. Protease products were analyzed on a reverse-phase high-pressure liquid chromatograph.

Compared with `CC(C)(C)NC(=O)C1C[C@@H]2CCCC[C@@H]2CN1C[C@@H](O)[C@H](Cc1ccccc1)NC(=O)OCCS(C)(=O)=O` (stereo partly drawn) [2-methanesulfonylethyl N-[(2S,3R)-4-[(4aS,8aS)-3-(tert-butylcarbamoyl)-decahydroisoquinolin-2-yl]-3-hydroxy-1-phenylbutan-2-yl]carbamate], `C[C@H]1[C@@H](OC(=O)N[C@@H](Cc2ccccc2)[C@H](O)CN2C[C@H]3CCCC[C@H]3CC2C(=O)NC(C)(C)C)CCS1(=O)=O` (stereo partly drawn) [(2S,3S)-2-methyl-1,1-dioxo--thiolan-3-yl N-[(2S,3R)-4-[(4aS,8aS)-3-(tert-butylcarbamoyl)-decahydroisoquinolin-2-yl]-3-hydroxy-1-phenylbutan-2-yl]carbamate] is 1.95 log units higher in pIC50: 5.99 for the first, 7.94 for the second.

First: CC(C)[C@@H]1[C@H](OC(=O)N[C@@H](Cc2ccccc2)[C@H](O)CN2C[C@H]3CCCC[C@H]3CC2C(=O)NC(C)(C)C)CCS1(=O)=O (stereo partly drawn) [(2R,3R)-1,1-dioxo-2-(propan-2-yl)--thiolan-3-yl N-[(2S,3R)-4-[(4aS,8aS)-3-(tert-butylcarbamoyl)-decahydroisoquinolin-2-yl]-3-hydroxy-1-phenylbutan-2-yl]carbamate]
Second: CC(C)[C@H]1[C@@H](OC(=O)N[C@@H](Cc2ccccc2)[C@H](O)CN2C[C@H]3CCCC[C@H]3CC2C(=O)NC(C)(C)C)CCS1(=O)=O (stereo partly drawn) [hydroxyethylene isostere]
The pIC50 of the first is 0.56 log units higher: 8.52 for the first, 7.96 for the second.

First: CC(C)C[C@@H]1[C@H](OC(=O)N[C@@H](Cc2ccccc2)[C@H](O)CN2C[C@H]3CCCC[C@H]3CC2C(=O)NC(C)(C)C)CCS1(=O)=O (stereo partly drawn) [(2R,3R)-2-(2-methylpropyl)-1,1-dioxo--thiolan-3-yl N-[(2S,3R)-4-[(4aS,8aS)-3-(tert-butylcarbamoyl)-decahydroisoquinolin-2-yl]-3-hydroxy-1-phenylbutan-2-yl]carbamate]
Second: CC(C)C[C@H]1[C@@H](OC(=O)N[C@@H](Cc2ccccc2)[C@H](O)CN2C[C@H]3CCCC[C@H]3CC2C(=O)NC(C)(C)C)CCS1(=O)=O (stereo partly drawn) [(2S,3S)-2-(2-methylpropyl)-1,1-dioxo--thiolan-3-yl N-[(2S,3R)-4-[(4aS,8aS)-3-(tert-butylcarbamoyl)-decahydroisoquinolin-2-yl]-3-hydroxy-1-phenylbutan-2-yl]carbamate]
The pIC50 of the first is 0.40 log units lower: 7.52 for the first, 7.92 for the second.

Going from `CC[C@@H]1[C@H](OC(=O)N[C@@H](Cc2ccccc2)[C@H](O)CN2C[C@H]3CCCC[C@H]3CC2C(=O)NC(C)(C)C)CCS1(=O)=O` (stereo partly drawn) [(2R,3R)-2-ethyl-1,1-dioxo--thiolan-3-yl N-[(2S,3R)-4-[(4aS,8aS)-3-(tert-butylcarbamoyl)-decahydroisoquinolin-2-yl]-3-hydroxy-1-phenylbutan-2-yl]carbamate] to `CC[C@H]1[C@@H](OC(=O)N[C@@H](Cc2ccccc2)[C@H](O)CN2C[C@H]3CCCC[C@H]3CC2C(=O)NC(C)(C)C)CCS1(=O)=O` (stereo partly drawn) [(2S,3S)-2-ethyl-1,1-dioxo--thiolan-3-yl N-[(2S,3R)-4-[(4aS,8aS)-3-(tert-butylcarbamoyl)-decahydroisoquinolin-2-yl]-3-hydroxy-1-phenylbutan-2-yl]carbamate], the pIC50 rises from 7.88 to 8.27 (0.39 log units).

First: C[C@H]1OCC[C@H]1OC(=O)N[C@@H](Cc1ccccc1)[C@H](O)CN1C[C@H]2CCCC[C@H]2CC1C(=O)NC(C)(C)C (stereo partly drawn) [(2R,3R)-2-methyloxolan-3-yl N-[(2S,3R)-4-[(4aS,8aS)-3-(tert-butylcarbamoyl)-decahydroisoquinolin-2-yl]-3-hydroxy-1-phenylbutan-2-yl]carbamate]
Second: C[C@@H]1OCC[C@@H]1OC(=O)N[C@@H](Cc1ccccc1)[C@H](O)CN1C[C@H]2CCCC[C@H]2CC1C(=O)NC(C)(C)C (stereo partly drawn) [(2S,3S)-2-methyloxolan-3-yl N-[(2S,3R)-4-[(4aS,8aS)-3-(tert-butylcarbamoyl)-decahydroisoquinolin-2-yl]-3-hydroxy-1-phenylbutan-2-yl]carbamate]
The pIC50 of the first is 0.51 log units lower: 6.77 for the first, 7.28 for the second. The second is the more potent here.

Going from `CC(C)(C)NC(=O)C1C[C@@H]2CCCC[C@@H]2CN1C[C@@H](O)[C@H](Cc1ccccc1)NC(=O)O[C@@H]1CCS(=O)(=O)C1` (stereo partly drawn) [(3R)-1,1-dioxo--thiolan-3-yl N-[(2S,3R)-4-[(4aS,8aS)-3-(tert-butylcarbamoyl)-decahydroisoquinolin-2-yl]-3-hydroxy-1-phenylbutan-2-yl]carbamate] to `CC(C)(C)NC(=O)C1C[C@@H]2CCCC[C@@H]2CN1C[C@@H](O)[C@H](Cc1ccccc1)NC(=O)O[C@H]1CCS(=O)(=O)C1` (stereo partly drawn) [(3S)-1,1-dioxo--thiolan-3-yl N-[(2S,3R)-4-[(4aS,8aS)-3-(tert-butylcarbamoyl)-decahydroisoquinolin-2-yl]-3-hydroxy-1-phenylbutan-2-yl]carbamate], the pIC50 rises from 6.85 to 7.12 (0.27 log units).

Work on `C[C@@H]1[C@H](OC(=O)N[C@@H](Cc2ccccc2)[C@H](O)CN2C[C@H]3CCCC[C@H]3CC2C(=O)NC(C)(C)C)CCS1(=O)=O` (stereo partly drawn) [hydroxyethylene isostere] yielded a pIC50 of 7.65.
